From the supplement of paper PMC11061612

What was measured:
786-0 (Kidney Carcinoma) = experiment: Bliss excess, mean over the matrix (fraction); higher = more synergy
In short: (§1)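 Bliss excess equals the observed combination effect minus the expected value EA + EB − EA·EB, where EA and EB are the effects of each agent alone. Combination Emax is the second-highest inhibition within the matrix. Inhibition was scaled from CellTiter-Glo 2.0 luminescence, with 0 set by vehicle wells and 1 by blank wells, after 72 hours of two-drug dosing of cells plated in 1536-well plates.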

[1] = tested on: AN3-CA (Endometrial Carcinoma); experiment: as above
In short: as §1

[2] = tested on: BALL-1 (B-Lymphoblastic Leukemia); experiment: as above
In short: as §1

ES-2 (Ovarian Carcinoma) = experiment: as above
In short: as §1

[3] = tested on: HTC-C3 (Thyroid Gland Carcinoma); experiment: as above
In short: as §1

[4] = tested on: LOUCY (T-Lymphoblastic Leukemia); experiment: as above
In short: as §1

[5] = tested on: NCI-H1563 (Lung Adenocarcinoma); experiment: as above
In short: as §1

[6] = tested on: NCI-H810 (Non-Small Cell Lung Carcinoma); experiment: as above
In short: as §1

[7] = tested on: NKM-1 (Acute Myeloid Leukemia); experiment: as above
In short: as §1

[8] = tested on: OCI-AML5 (Acute Myeloid Leukemia); experiment: as above
In short: as §1

[9] = tested on: PANC-02-03 (Pancreatic Carcinoma); experiment: as above
In short: as §1

[10] = tested on: PC-14 (Lung Adenocarcinoma); experiment: as above
In short: as §1

[11] = tested on: RERF-LC-KJ (Lung Adenocarcinoma); experiment: as above
In short: as §1

[12] = tested on: RMG-I (Ovarian Carcinoma); experiment: as above
In short: as §1

RT4 (Bladder Carcinoma) = experiment: as above
In short: as §1

[13] = tested on: SNU-175 (Colorectal Carcinoma); experiment: as above
In short: as §1

[14] = tested on: SW684 (Other Solid Carcinomas); experiment: as above
In short: as §1

[15] = tested on: NKM-1 (Acute Myeloid Leukemia); experiment: combination Emax (second highest fraction inhibited in the dose matrix, 72 h); higher = more inhibition; extreme values may be limits of the assay
In short: as §1

[16] = tested on: RL95-2 (Endometrial Carcinoma); experiment: as above
In short: as §1

Row | Compound | Bliss excess (786-0 (Kidney Carcinoma)) | Bliss excess [1] | Bliss excess [2] | Bliss excess (ES-2 (Ovarian Carcinoma)) | Bliss excess [3] | Bliss excess [4] | Bliss excess [5] | Bliss excess [6] | Bliss excess [7] | Bliss excess [8] | Bliss excess [9] | Bliss excess [10] | Bliss excess [11] | Bliss excess [12] | Bliss excess (RT4 (Bladder Carcinoma)) | Bliss excess [13] | Bliss excess [14] | combination Emax [15] | combination Emax [16]
1 | CN(C)CCCOc1ccc(-c2ccc3ncc4c(c3c2)n(C2CCOCC2)c(=O)n4C)cn1 [AZD0156] + O=C(c1cc(Cc2n[nH]c(=O)c3ccccc23)ccc1F)N1CCN(C(=O)C2CC2)CC1 [Olaparib] (first compound max 3 µM, partner max 3 µM) | 0.0418 | 0.0263 | 0.158 | 0.0327 | -0.0502 | 0.125 | -0.0158 | 0.0541 | 0.0587 | 0.0103 | 0.0278 | -0.0009 | -0.0459 | -0.0428 | -0.0044 | 0.105 | -0.0388 | 0.585 | 0.384
2 | COc1nnc2ccc(N3CCC(c4ccc(OCCN5CCN(C)C(=O)[C@H]5C)cc4)CC3)nn12 [AZD5153] + CN(CC[C@H](CSC1=CC=CC=C1)NC2=C(C=C(C=C2)S(=O)(=O)NC(=O)C3=CC=C(C=C3)N4CCC(CC4)[C@H](C5=CC=CC=C5C6=CC=C(C=C6)Cl)O)S(=O)(=O)C(F)(F)F)CCO [AZD4320] (first compound max 1 µM, 7x7, partner max 1 µM) | 0.0508 | 0.0161 | -0.0008 | 0.0277 | 0.0859 | – | 0.0003 | – | – | 0.0299 | – | 0.0111 | -0.0066 | – | 0.0826 | 0.002 | – | – | 0.452
3 | COc1nnc2ccc(N3CCC(c4ccc(OCCN5CCN(C)C(=O)[C@H]5C)cc4)CC3)nn12 [AZD5153] + Cn1cnc2c(F)c(Nc3ccc(Br)cc3Cl)c(C(=O)NOCCO)cc21 [Selumetinib] (first compound max 1 µM, 7x7, partner max 10 µM) | 0.0143 | -0.0484 | -0.0274 | 0.0345 | -0.0464 | 0.0484 | -0.085 | -0.0224 | 0.0071 | 0.0945 | 0.0742 | 0.007 | -0.113 | -0.0486 | 0.0073 | -0.0007 | -0.0187 | 0.995 | 0.66
4 | COc1nnc2ccc(N3CCC(c4ccc(OCCN5CCN(C)C(=O)[C@H]5C)cc4)CC3)nn12 [AZD5153] + CCN(CCO)CCCOc1ccc2c(Nc3cc(CC(=O)Nc4cccc(F)c4)[nH]n3)ncnc2c1 [AZD2811] (first compound max 1 µM, 7x7, partner max 1 µM) | -0.0274 | -0.0375 | 0.0056 | 0.0089 | -0.05 | 0.0305 | -0.0508 | -0.0068 | -0.0201 | -0.0282 | -0.0809 | -0.0017 | -0.075 | -0.0479 | -0.0391 | -0.112 | -0.0767 | 0.922 | 0.524
5 | Cn1cnc2c(F)c(Nc3ccc(Br)cc3Cl)c(C(=O)NOCCO)cc21 [Selumetinib] + C[C@@H]1COCCN1C2=NC(=NC(=C2)C3(CC3)[S@](=N)(=O)C)C4=C5C=CNC5=NC=C4 [AZD6738] (first compound max 10 µM, 7x7, partner max 10 µM) | -0.0735 | 0.0359 | -0.0066 | 0.0006 | -0.0072 | -0.0446 | -0.0297 | -0.0707 | -0.0748 | 0.0024 | 0.04 | -0.0022 | 0.0075 | 0.0106 | -0.0036 | 0.0644 | -0.071 | 0.796 | 0.772
6 | CC(=O)c1c(C)c2cnc(Nc3ccc(N4CCNCC4)cn3)nc2n(C2CCCC2)c1=O [Palbociclib] + Cn1cnc2c(F)c(Nc3ccc(Br)cc3Cl)c(C(=O)NOCCO)cc21 [Selumetinib] (first compound max 10 µM, 7x7, partner max 10 µM) | 0.0079 | -0.0278 | -0.12 | -0.0041 | 0.0564 | -0.0138 | 0.0092 | -0.0697 | -0.0194 | 0.0868 | 0.0334 | 0.0408 | -0.0208 | -0.0165 | 0.0209 | 0.0599 | -0.018 | 0.944 | 0.561
7 | CC(=O)c1c(C)c2cnc(Nc3ccc(N4CCNCC4)cn3)nc2n(C2CCCC2)c1=O [Palbociclib] + CN(CC[C@H](CSC1=CC=CC=C1)NC2=C(C=C(C=C2)S(=O)(=O)NC(=O)C3=CC=C(C=C3)N4CCC(CC4)[C@H](C5=CC=CC=C5C6=CC=C(C=C6)Cl)O)S(=O)(=O)C(F)(F)F)CCO [AZD4320] (first compound max 10 µM, 7x7, partner max 1 µM) | -0.0388 | 0.0108 | -0.0446 | -0.0649 | -0.0712 | – | -0.0292 | – | – | -0.0327 | – | -0.0307 | -0.0742 | – | -0.0409 | -0.0082 | – | – | 0.358
8 | NC1(C(=O)N[C@@H](CCO)c2ccc(Cl)cc2)CCN(c2ncnc3[nH]ccc23)CC1 [Capivasertib] + CC(C)n1c(=O)n(C)c2cnc3cc(F)c(-c4ccc(OCCCN5CCCCC5)nc4)cc3c21 [AZD1390] (first compound max 10 µM, 7x7, partner max 0.3 µM) | -0.0997 | -0.0057 | -0.0292 | -0.0648 | -0.0216 | -0.0101 | 0.0016 | -0.0543 | -0.111 | -0.0369 | -0.013 | -0.0168 | -0.0017 | -0.062 | -0.0651 | -0.0346 | -0.0057 | 0.459 | 0.823
9 | Cn1cnc2c(F)c(Nc3ccc(Br)cc3Cl)c(C(=O)NOCCO)cc21 [Selumetinib] + CC(C)n1c(=O)n(C)c2cnc3cc(F)c(-c4ccc(OCCCN5CCCCC5)nc4)cc3c21 [AZD1390] (first compound max 10 µM, 7x7, partner max 0.3 µM) | -0.0587 | -0.0669 | -0.0156 | -0.0215 | -0.0092 | -0.0166 | -0.0229 | -0.0525 | -0.107 | -0.0198 | -0.0139 | -0.0015 | -0.0073 | -0.0268 | -0.0267 | 0.0063 | -0.0616 | 0.504 | 0.372
10 | COc1nnc2ccc(N3CCC(c4ccc(OCCN5CCN(C)C(=O)[C@H]5C)cc4)CC3)nn12 [AZD5153] + CC1(C)CCC(CN2CCN(c3ccc(C(=O)NS(=O)(=O)c4ccc(NCC5CCOCC5)c([N+](=O)[O-])c4)c(Oc4cnc5[nH]ccc5c4)c3)CC2)=C(c2ccc(Cl)cc2)C1 [Venetoclax] (first compound max 1 µM, 7x7, partner max 1 µM) | -0.0762 | -0.0347 | -0.0141 | -0.0677 | -0.0648 | 0.0241 | -0.0496 | -0.0474 | -0.0195 | 0.0114 | -0.0263 | -0.03 | -0.0146 | -0.0456 | -0.019 | -0.0392 | -0.0705 | 0.978 | 0.426
11 | NC1(C(=O)N[C@@H](CCO)c2ccc(Cl)cc2)CCN(c2ncnc3[nH]ccc23)CC1 [Capivasertib] + COc1nnc2ccc(N3CCC(c4ccc(OCCN5CCN(C)C(=O)[C@H]5C)cc4)CC3)nn12 [AZD5153] (first compound max 10 µM, 7x7, partner max 1 µM) | 0.0014 | 0.0778 | -0.0339 | 0.0199 | 0.0265 | 0.0912 | -0.0218 | 0.0078 | -0.0157 | 0.0552 | 0.0132 | 0.0461 | -0.0437 | -0.0448 | -0.0021 | -0.055 | 0.004 | 1 | 0.9
12 | C[C@@H](c1ccc2nccn2c1)n1nnc2ncc(-c3cnn(C)c3)nc21 [Savolitinib] + CC1(C)CCC(CN2CCN(c3ccc(C(=O)NS(=O)(=O)c4ccc(NCC5CCOCC5)c([N+](=O)[O-])c4)c(Oc4cnc5[nH]ccc5c4)c3)CC2)=C(c2ccc(Cl)cc2)C1 [Venetoclax] (first compound max 1 µM, 7x7, partner max 1 µM) | -0.0848 | -0.0499 | -0.0306 | -0.0324 | -0.053 | -0.0803 | -0.0691 | -0.0517 | 0.0653 | -0.031 | -0.0231 | -0.0276 | -0.077 | -0.0756 | -0.055 | -0.0764 | -0.0461 | 0.545 | 0.085
13 | NC1(C(=O)N[C@@H](CCO)c2ccc(Cl)cc2)CCN(c2ncnc3[nH]ccc23)CC1 [Capivasertib] + Cn1cnc2c(F)c(Nc3ccc(Br)cc3Cl)c(C(=O)NOCCO)cc21 [Selumetinib] (first compound max 10 µM, 7x7, partner max 10 µM) | 0.0614 | -0.0016 | 0.0317 | 0.0171 | 0.0677 | 0.0806 | -0.119 | -0.014 | 0.142 | 0.0645 | 0.0589 | 0.0938 | 0.0517 | 0.0235 | -0.0196 | -0.0408 | 0.0495 | 0.965 | 1
14 | CC(=O)c1c(C)c2cnc(Nc3ccc(N4CCNCC4)cn3)nc2n(C2CCCC2)c1=O [Palbociclib] + CC1(C)CCC(CN2CCN(c3ccc(C(=O)NS(=O)(=O)c4ccc(NCC5CCOCC5)c([N+](=O)[O-])c4)c(Oc4cnc5[nH]ccc5c4)c3)CC2)=C(c2ccc(Cl)cc2)C1 [Venetoclax] (first compound max 10 µM, 7x7, partner max 1 µM) | 0.0042 | -0.024 | -0.0053 | -0.0219 | -0.0214 | 0.083 | -0.0079 | -0.0585 | 0.0548 | 0.0436 | -0.0319 | -0.0198 | -0.0314 | -0.0541 | 0.0032 | 0.0639 | -0.0492 | 0.946 | 0.226
15 | C[C@@H](c1ccc2nccn2c1)n1nnc2ncc(-c3cnn(C)c3)nc21 [Savolitinib] + CN(CC[C@H](CSC1=CC=CC=C1)NC2=C(C=C(C=C2)S(=O)(=O)NC(=O)C3=CC=C(C=C3)N4CCC(CC4)[C@H](C5=CC=CC=C5C6=CC=C(C=C6)Cl)O)S(=O)(=O)C(F)(F)F)CCO [AZD4320] (first compound max 1 µM, 7x7, partner max 1 µM) | -0.0642 | -0.0575 | -0.0078 | -0.0383 | -0.0215 | – | -0.0266 | – | – | -0.0418 | – | 0.0011 | -0.0454 | – | -0.0284 | -0.045 | – | – | 0.167
